Source: PubChem BioAssay (NCI)
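Method: 48-hour compound exposure of cells in 96-well plates, five concentrations, linear interpolation of endpoints. GI50 marks 50% less growth. At the TGI there is no net growth.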

Experiments:
Assay in all cases: NCI-60 cell line screen, 48 h
MALME-3M melanoma = test system: MALME-3M melanoma
UACC-257 melanoma = test system: UACC-257 melanoma
NCI-H23 lung = test system: NCI-H23 lung
ACHN renal = test system: ACHN renal
MDA-N = test system: MDA-N
T-47D breast = test system: T-47D breast
U251 CNS = test system: U251 CNS
SF-539 CNS = test system: SF-539 CNS
RPMI-8226 leukemia = test system: RPMI-8226 leukemia
HL-60(TB) leukemia = test system: HL-60(TB) leukemia

Row | Compound | TGI (MALME-3M melanoma) | TGI (UACC-257 melanoma) | TGI (NCI-H23 lung) | TGI (ACHN renal) | TGI (MDA-N) | TGI (T-47D breast) | TGI (U251 CNS) | TGI (SF-539 CNS) | GI50 (ACHN renal) | GI50 (T-47D breast) | GI50 (U251 CNS) | GI50 (SF-539 CNS) | TGI (RPMI-8226 leukemia) | TGI (HL-60(TB) leukemia)
1 | O=C(/C=C/c1ccc(O)c(O)c1)OCCc1ccc2ccccc2c1 | 23.1 µM | 23.3 µM | 14.7 µM | 15.1 µM | 5.45 µM | 18.7 µM | 23.8 µM | 19.1 µM | – | – | – | – | – | –
2 | COc1cc2nc(-c3ccc(Cl)cc3)cc(OCCCN3CCOCC3)c2cc1OC | – | – | – | > 100 µM | – | > 100 µM | > 100 µM | > 100 µM | 3.64 µM | 1.96 µM | 1.92 µM | 2.99 µM | – | –
3 | CCCCI(O)OS(=O)(=O)c1ccc(C)cc1 | – | > 100 µM | > 100 µM | > 100 µM | – | > 100 µM | > 100 µM | > 100 µM | – | – | – | – | > 100 µM | –
4 | O=[N+]([O-])c1ccc(C[P+]2(c3ccccc3)CCCCC2)cc1 | > 100 µM | > 100 µM | > 100 µM | > 100 µM | – | – | > 100 µM | > 100 µM | – | – | – | – | > 100 µM | > 100 µM
5 | N#Cc1c(-c2ccc([N+](=O)[O-])cc2)cc(-c2ccc(Nc3ccnc4cc(Cl)ccc34)cc2)[nH]c1=O | > 100 µM | – | > 100 µM | > 100 µM | – | > 100 µM | > 100 µM | > 100 µM | – | – | – | – | > 100 µM | > 100 µM
6 | Cc1nc2ccc(Cl)cc2c(-n2ccnc2)c1CCn1ccnc1 | 97 µM | 61 µM | > 100 µM | 83.6 µM | 84.7 µM | – | > 100 µM | > 100 µM | – | – | – | – | – | 62.7 µM
7 | O=C1C=CC2(O[C@H](c3ccccc3)[C@@H](c3ccccc3)O2)[C@H](Sc2ccccc2O)C1 | 0.907 µM | 1.71 µM | 2.39 µM | 1.07 µM | 1.13 µM | – | 1.78 µM | 1.7 µM | – | – | – | – | – | 2.82 µM
8 | COc1ccc2c(c1)c1c(n2CCN2CCCCC2)-c2cccc(OC)c2CC1 | – | 38 µM | 32.1 µM | 43 µM | 35 µM | 47.2 µM | 29.9 µM | – | – | – | – | – | 35.5 µM | –
9 | COC(=O)CC(=O)OSc1ccccc1 | > 100 µM | 87.7 µM | 82.9 µM | 56.5 µM | – | – | 24.1 µM | 25.5 µM | – | – | – | – | > 100 µM | –
10 | Cc1ccccc1-c1nc2c(N)nc(N)nc2nc1N | – | > 100 µM | > 100 µM | > 100 µM | > 100 µM | – | > 100 µM | > 100 µM | – | – | – | – | > 100 µM | > 100 µM
11 | CC(C)C(Br)CCC1=CCC(Br)(Br)C1 (stereo not given) | 27.9 µM | 28.2 µM | 21.5 µM | 30.6 µM | 10.4 µM | – | 28.8 µM | 33.7 µM | – | – | – | – | – | > 100 µM
12 | NS(=O)(=O)c1nnc(NC(=O)N(c2ccccc2)c2ccccc2)s1 | 62.5 µM | > 100 µM | 58.9 µM | – | 88.3 µM | – | > 100 µM | 34.7 µM | – | – | – | – | 49.4 µM | 48.2 µM
13 | CN(C)c1nc(Oc2nc(N(C)C)nc(N(C)C)n2)nc(N(C)C)n1 | > 100 µM | > 100 µM | > 100 µM | > 100 µM | – | – | > 100 µM | > 100 µM | – | – | – | – | > 100 µM | > 100 µM
14 | NCCN1CCCCCc2ccccc21 | > 10 µM | > 10 µM | > 10 µM | > 10 µM | – | > 10 µM | > 10 µM | > 10 µM | – | – | – | – | > 10 µM | > 10 µM
15 | COc1cc2ccc3c4cc(OC)c(OC)cc4c[n+](C)c3c2cc1O | > 100 µM | > 100 µM | > 100 µM | > 76.6 µM | – | – | > 87.9 µM | > 100 µM | – | – | – | – | > 100 µM | > 100 µM
16 | CSCC[C@@H](NC(=O)[C@H](CC(C)C)NC(=O)C(Cc1cnc[nH]1)NC(=O)CNC(=O)[C@@H](NC(=O)[C@H](C)NC(=O)[C@H](Cc1c[nH]c2ccccc12)NC(=O)[C@H](CCC(N)=O)NC(=O)[C@@H](N)CC(N)=O)C(C)C)C(N)=O (stereo not given in full) | > 100 µM | > 100 µM | > 100 µM | – | – | – | > 100 µM | > 100 µM | – | – | – | – | > 100 µM | > 100 µM
17 | CN(C)CCn1c(=O)c2ccc(NCCCN(C)CCCNc3ccc4c(=O)n(CCN(C)C)c(=O)n5c6ccc(O)cc6c(=O)c3c45)c3c(=O)c4cc(O)ccc4n(c1=O)c23 | 0.598 µM | 1.23 µM | 0.226 µM | 0.726 µM | 0.251 µM | 10.2 µM | 0.3 µM | 1.84 µM | – | – | – | – | – | 0.701 µM
18 | CN(C)C(=O)C(F)(F)C(c1ccc(F)cc1)C1C(=O)N(C)C(=O)N(C)C1=O (stereo not given) | – | > 100 µM | > 100 µM | > 100 µM | – | > 100 µM | > 100 µM | – | – | – | – | – | > 100 µM | –
